# Measurements from patent US20170260169A1, “INHIBITORS FOR STEROID RESPONSE ELEMENTS AND RNA POLYMERASE II AND RELATED METHODS” (priority 2007, published 2017).
# How the values were obtained:
# [1] = test system: RNAP2 genomic occupancy; test: ChIP-seq of RNA polymerase II occupancy in LNCaP cells; format: cell-based, human
# [2] = test system: transcripts in DHT-stimulated LNCaP cells; test: Gene expression with Affymetrix Human Genome U133 Plus 2.0 arrays, DHT-stimulated LNCaP cells; format: cell-based
# Protocol: LNCaP cells were plated in 12-well plates at a density of 80-100×10^3 cells per well. Media, polyamide treatments, and time courses were the same as described above. Bicalutamide was added 2 h before DHT stimulation. RNA was isolated as described in ref. 21. From this point, experiments were carried out at the Millard and Muriel Jacobs Gene Expression Facility at the California Institute of Technology. Labeled mRNA was hybridized to Affymetrix high-density Human Genome U133 Plus 2.0 arrays according to established protocols. Gene expression was analyzed by using Resolver (Rosetta Biosoftware, Seattle, Wash.). Data were uploaded to the Gene Expression Omnibus repository (accession no. GSE7708).
# Global effects of polyamides 1 and 2 and bicalutamide on gene expression in DHT-stimulated LNCaP cells were monitored with Affymetrix (Santa Clara, Calif.) high-density Human Genome U133 Plus 2.0 arrays, which interrogate >50,000 transcripts.
# [3] = test system: GILZ enhancer GRE1; test: Quantitative DNase I footprint titration on pKAM5 fragment, GRE1; format: binding
# Protocol: Detailed experimental protocols are reported elsewhere (44). The GILZ enhancer contains two GREs separated by 22 base pairs (46). GRE 1 is 5'-[NT]=3' (SEQ ID NO:5) and GRE 2 is […] ID NO:7). The DNA binding of polyamides 1 and 2 on these sequences was measured by quantitative DNase I footprint. […] […]).
# [4] = Liver microsomal stability, mouse; conditions: 1 μM, Mouse, 1 hr at 37° C., 1 mg/ml microsomes
# [5] = Serum circulation after subcutaneous injection in C57BL/6 mice; format: in vivo; conditions: 120 nmol, 5% DMSO/PBS
# Protocol: To investigate if polyamide 77 could be detected in peripheral blood after SC injections, 120 nmol of 77 (in 5% DMSO/PBS) was injected into the right flank of four C57BL/6 mice. Blood was collected from anesthetized mice via retroorbital collection at 5 minutes, 4 h, and 12 h after injection, then processed by methods previously described and analyzed by HPLC (35). For measurement of serum PSA (KLK3) and uric acid, blood was collected from anesthetized mice via retroorbital collection at experimental endpoint and serum was separated from blood by centrifugation. Serum PSA (KLK3) was measured by ELISA (R&D systems) according to manufacturer's instructions. Uric acid was measured as described (36).
# We synthesized four structurally related polyamides (FIG. 28) that have an identical Py-Im sequence ImPyPyPy-γ-ImPyPyPy-NHMe-IPA.
# [6] = test system: FKBP5 mRNA expression in LNCaP cells; test: DHT-induced FKBP5 mRNA in LNCaP cells; format: cell-based
# [7] = test system: binding of LNCaP nuclear extract factors to the ARE site in the PSA promoter; test: Electrophoretic mobility shift assay with DHT-stimulated LNCaP nuclear extract; format: biochemical
# Protocol: containing the PSA promoter ARE (underlined) was end-labeled with ^32P and annealed to its complement. Polyamides 1 and 2 were incubated with the duplex for 3 h in previously optimized buffer conditions (45). Nuclear extract from DHT-treated LNCaP cells (Genetex, San Antonio, Tex.) was then added for an additional 45 min. Complexes were run on a 5% polyacrylamide gel and visualized on a phosphorimager.
# The effects of polyamides 1 and 2 on the binding of factors present in the nuclear extract isolated from DHT-stimulated LNCaP cells to the ARE site in the PSA promoter was measured by an electrophoretic mobility shift assay (FIG. 8D).
# [8] = test system: PSA protein secretion by LNCaP cells; test: Secreted PSA protein by ELISA, LNCaP cells; format: cell-based; conditions: after DHT stimulation, compared with 2 or untreated control
# Protocol: LNCaP cells (ATCC) were plated in 24-well plates at a density of 40-50×10^3 cells per well (80-100×10^3 cells per ml) in RPMI medium 1640 (ATCC) supplemented with 10% FBS (Irvine Scientific, Santa Ana, Calif.). After 72 h, the medium was replaced with RPMI medium 1640 containing 10% charcoal stripped FBS with or without polyamides at the designated concentrations. Cells were grown for an additional 48 h and then treated with 1 nM DHT for 16 h. When appropriate, bicalutamide was added 2 h before DHT stimulation. Isolation of RNA and cDNA synthesis was performed as described (21). Quantitative real-time RT-PCR was performed with SYBR Green PCR Master Mix (Applied Biosystems, Foster City, Calif.) on an ABI 7300 instrument. PSA mRNA was measured relative to β-glucuronidase as an endogenous control. Primer sequences are available upon request. Cell-culture supernatants were collected for an ELISA (R & D Systems, Minneapolis, Minn.) to measure PSA protein according to the manufacturer's protocol.
# [9] = Liver microsomal stability, human; conditions: 1 μM, Human, 1 hr at 37° C., 1 mg/ml microsomes
# Protocol: Briefly, each polyamide was incubated with 1 mg/ml human or mouse microsomes at 37° C. The reaction was incubated in 100 mM KH2PO4, 2 mM NADPH, 3 mM MgCl2 at pH 7.4. Samples were also incubated in the absence of NADPH to detect NADPH-free degradation. After 60 min the samples were mixed with an equal volume of ice cold methanol stop solution. The mixture was allowed to sit on ice for at least 10 min and mixed with an equal volume of water. The samples were then centrifuged to remove the precipitates and the samples were analyzed by LC/MS/MS. Data represents % remaining by comparing with time zero concentration. The experiments were performed in duplicate.
# [10] = test system: PSA mRNA expression in LNAR cells; test: PSA mRNA expression in LNAR cells (hormone refractory, over-express AR); format: cell-based
# Excerpt: The cell line LNAR was used, which has been engineered to over-express AR (14). LNAR cells over-express AR and form hormone refractory tumors when xenografted in mice (14).
# [11] = test system: LNCaP cells; test: Cell viability WST-1 assay; format: cell-based; conditions: LNCaP
# Protocol: LNCaP cells were plated in clear bottom 96 well plates at 5,000-7,500 cells per well. The cells were allowed to adhere for 24-36 h before compounds were added in fresh media. Cell viability was determined by the WST-1 assay (Roche) for 77 and 85 after 24 h or 72 h incubation with cells. Cells in cytotoxicity rescue experiments were treated with 85 alone or with 3 μM for 24 h.
# LNCaP cells were plated in clear bottom 96-well plates at 5,000-7,500 cells per well and allowed to adhere for 36-48 h. Compounds were then added in fresh media. Cell metabolic activity was determined by the WST-1 assay (Roche) after 72-h incubation with cells. Quantification was performed on a Perkin Elmer Victor 3 plate reader. Assays were performed in biological triplicates.
# [12] = test system: GR occupancy at the GILZ enhancer; test: Chromatin immunoprecipitation with anti-GR, GILZ enhancer, A549 cells; format: cell-based
# Protocol: A549 cells were plated in 15-cm diameter plates. Media, polyamide treatment, time course, and […] were the same as described above. After dexamethasone treatment, cells were treated with 1% formaldehyde for 10 min. Chromatin was isolated and sheared. Antibodies to GR (graciously gifted by Keith Yamamoto) were used to immunoprecipitate GR-bound DNA fragments. Crosslinks were reversed, and PCRs using primers targeted to the regions of interest were used to assess enrichment of bound fragments as compared with mock-precipitated (no antibody) controls. PCRs were monitored with SYBR Green PCR Master Mix (Applied Biosystems) on an ABI 7300 instrument. Primer sequences and a more detailed experimental protocol are available upon request.
# [13] = 10 μM, + DHT, relative to DHT-induced controls, p ≦ 0.01
# [14] = relative to DHT-induced controls, + DHT
smiles,measurement,setting,value
"CN(CCCNC(=O)c1cccc(C(=O)O)c1)CCCNC(=O)c1cc(NC(=O)c2cc(NC(=O)c3cc(NC(=O)c4nc(NC(=O)[C@H](N)CCNC(=O)c5cc(NC(=O)c6cc(NC(=O)c7cc(NC(=O)c8nccn8C)cn7C)cn6C)cn5C)cn4C)cn3C)cn2C)cn1C [Polyamide 1, ImPyPyPy-2-(R)H^2Nγ-ImPyPyPy-NHMe-IPA]",RNAP2 occupancy at enhancer loci,[1]; DHT + 77,did not significantly change
same,RNAP2 occupancy across genic regions,"[1]; DHT + 77, 48 h",global decrease of RNAP2 occupancy across genic regions
same,Number of transcripts down-regulated (fold change ≦ −2.0),[2]; [13],706
same,Number of transcripts down-regulated (fold change ≦ −4.0),[2]; [13],126
same,Number of transcripts up-regulated (fold change ≧ 2.0),[2]; [13],347
same,Number of transcripts up-regulated (fold change ≧ 4.0),[2]; [13],42
same,number of transcripts affected by at least 2-fold,"[2]; 10 μM, P≦0.01, vs DHT-induced controls","1,053"
same,share of interrogated transcripts affected,"[2]; 10 μM, at least 2-fold",less than 2%
same,share of transcripts induced at least 4-fold by DHT whose expression is inhibited,[2]; LNCaP cells,≈ 35%
same,number of the 88 DHT-repressed transcripts derepressed at least 2-fold,[2]; P≦0.01,eight
same,number of the 199 DHT-induced transcripts inhibited at least 2-fold,[2]; P≦0.01,70
same,Fold-change of FKBP5,[2]; [14],−3.1
same,Fold-change of KLK2,[2]; [14],−2.4
same,Fold-change of KLK3 (PSA),[2]; [14],−3.3
same,Fold-change of TMPRSS2,[2]; [14],−2.3
same,Ka,[3],1.9±0.8×10^10
same,Mean remaining parent NADPH-free,[4],96.8%
same,Mean remaining parent with NADPH,[4],95.2%
same,circulation after SC injection,[5],detectable circulation
same,inhibition of DHT-induced expression of FKBP5,[6],≈ 60%
same,concentration inhibiting binding to the labeled duplex,[7],≥ 10 nM
same,supernatant concentrations of PSA protein,[8],reduced
same,Mean remaining parent NADPH-free,[9],92.3%
same,Mean remaining parent with NADPH,[9],96.9%
same,effect on DHT-induced PSA mRNA expression in LNAR cells,[10],maintains efficacy
same,cytotoxicity after 24 h treatment,[11],minimal cytotoxicity is seen at 24 h
same,occupancy of GR at the GILZ enhancer,[12]; 1 μM as printed,decreased occupancy
same,GR occupancy at the GILZ enhancer,"[12]; 10 μM, FIG. 17 legend",decreased
